SMILES strings stand for the structures. Where a name gives a salt, the structure may show the parent alone.

One may read the EC50 as the concentration that produces a half-maximal response.

The data set has as its target T1, Human AHR (Homo sapiens, UniProt P35869).
T1 construct: expressed in transfected cells
T1 sequence (P35869 11-848): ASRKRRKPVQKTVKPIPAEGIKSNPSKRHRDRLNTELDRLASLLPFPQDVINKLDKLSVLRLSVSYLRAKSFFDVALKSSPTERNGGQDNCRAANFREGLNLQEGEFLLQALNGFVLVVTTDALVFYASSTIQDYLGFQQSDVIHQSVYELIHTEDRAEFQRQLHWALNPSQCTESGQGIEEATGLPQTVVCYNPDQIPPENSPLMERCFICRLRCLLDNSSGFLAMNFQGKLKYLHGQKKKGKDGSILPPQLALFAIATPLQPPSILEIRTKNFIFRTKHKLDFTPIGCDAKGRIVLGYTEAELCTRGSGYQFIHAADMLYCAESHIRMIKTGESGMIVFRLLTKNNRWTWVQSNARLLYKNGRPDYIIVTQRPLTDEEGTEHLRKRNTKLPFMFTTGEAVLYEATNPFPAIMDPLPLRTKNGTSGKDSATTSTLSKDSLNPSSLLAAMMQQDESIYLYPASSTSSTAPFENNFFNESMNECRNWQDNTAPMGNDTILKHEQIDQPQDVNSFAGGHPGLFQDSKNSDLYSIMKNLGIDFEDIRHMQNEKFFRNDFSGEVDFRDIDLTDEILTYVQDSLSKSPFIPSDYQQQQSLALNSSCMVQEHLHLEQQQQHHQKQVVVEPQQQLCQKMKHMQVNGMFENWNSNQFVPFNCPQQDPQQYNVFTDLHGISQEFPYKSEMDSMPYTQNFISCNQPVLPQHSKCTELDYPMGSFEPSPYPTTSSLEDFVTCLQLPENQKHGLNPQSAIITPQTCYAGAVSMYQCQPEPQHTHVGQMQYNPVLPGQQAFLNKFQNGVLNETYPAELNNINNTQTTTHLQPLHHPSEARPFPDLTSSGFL
As to the kind of experiment: hAHR Nuclear Translocation Assay. It counts as cell-based. The conditions noted are these: Jump-In T-REx HEK293 cells expressing AhR-EGFP chimera; 45 minutes incubation; ratio of EGFP fluorescent intensity in nuclear over cytosol; 20-point curve. The procedure: Stable cell lines were established using Jump-In™ T-REx™ HEK293 Retargeting Kit (Life Technologies). Human AHR cDNA was cloned into the pJTI R4 CMV-TO EGFP vector. The EGFP was cloned to the C-terminal of AHR to form AhR-EGFP chimera. The pJTI R4 CMV-TO AhR-EGFP vector was transfected using FuGENE® HD into Jump-In™ T-REx™ HEK293 cells. Transfected cells were selected using 2.5 mg/ml G418 for 10 to 14 days, then expanded, harvested, and suspended in freeze media (FBS with 8% DMSO) at 2×10^7 cells/ml, and aliquots were stored in liquid nitrogen. […] On the assay date, compound was serially diluted (1:2) into 384-well nunc plates with DMSO using acoustic dispensing (ECHO). The dose response was a 20-point curve. Compound was resuspended in 40 μl of DMEM plus 0.1% BSA. The culture media was damped and 25 μl of DMEM plus 0.1% BSA was added, then 25 μl of compound in DMEM plus 0.1% BSA was added into cell plates. Cells were incubated with compounds at 37° C. and 5% CO2 for 45 minutes. The final DMSO concentration was 0.2%. The media was damped after 45 minutes of incubation. The cells were fixed with 40 μl of cold methanol (−20° C.) for 20 minutes. The methanol was damped and 50 μl of DPBS containing 1 μg/ml Hochst was added into the cell plates. The intensity of EGFP was quantitated by using OPERA PHENIX® or Operetta™ high content image system (Perkin Elmer) with 20× Water Objective and five field per well. The ratio of EGFP fluorescent intensity in nuclear over cytosol was analyzed using a 4-parameter nonlinear logistic equation to determine the potency of AHR agonists.
With `CO[C@H]1CC[C@@H](NC(=O)c2cc3cccc4c3n(c2=O)CC4)C1` (relative stereo) [Example 31, 11-Oxo-N-[rel-(1S,3R)-3-methoxycyclopentyl]-1-azatricyclo[6.3.1.04,12]dodeca-4(12),5,7,9-tetraene-10-carboxamide], the EC50 was determined as 53.2 nM.

Turning to `COc1ccc(NC(=O)c2cc3ccccc3n(C)c2=O)cc1` [Example 1, N-(4-Methoxyphenyl)-1-methyl-2-oxo-quinoline-3-carboxamide], the EC50 was determined as 0.304 nM.

With `Cn1c(=O)c(C(=O)Nc2ccccc2O)cc2ccccc21` [Example 2, N-(2-Hydroxyphenyl)-1-methyl-2-oxo-quinoline-3-carboxamide], the concentration giving a half-maximal response (EC50) was determined as 2.41 nM.

`COc1ccc(NC(=O)c2cc3ccccc3n(C)c2=O)cc1OC` [Example 3, N-(3,4-Dimethoxyphenyl)-1-methyl-2-oxo-quinoline-3-carboxamide]: the EC50 was determined as 0.837 nM.

`Cn1c(=O)c(C(=O)Nc2ccc(F)cc2)cc2ccccc21` [Example 4, N-(4-Fluorophenyl)-1-methyl-2-oxo-quinoline-3-carboxamide]: the EC50 worked out at 0.214 nM.

As to `Cc1ccc(NC(=O)c2cc3ccccc3n(C)c2=O)cc1` [Example 5, 1-Methyl-2-oxo-N-(p-tolyl) quinoline-3-carboxamide], the EC50 came to 0.0971 nM.

For the compound `COc1ccc(NC(=O)c2cc3ccccc3n(C)c2=O)c(C)c1` [Example 6, N-(4-Methoxy-2-methyl-phenyl)-1-methyl-2-oxo-quinoline-3-carboxamide], the EC50 came to 5.17 nM.

With `Cc1ccnc(NC(=O)c2cc3ccccc3n(C)c2=O)c1` [Example 7, 1-Methyl-N-(4-methyl-2-pyridyl)-2-oxo-quinoline-3-carboxamide], the 50% effective concentration (EC50) turned out to be 6.13 nM.

With `COc1cccc(NC(=O)c2cc3ccccc3n(C)c2=O)c1` [Example 8, N-(3-Methoxyphenyl)-1-methyl-2-oxo-quinoline-3-carboxamide], the EC50 is 1.12 nM.

Take `Cn1c(=O)c(C(=O)Nc2ccccn2)cc2ccccc21` [Example 9, 1-Methyl-2-oxo-N-(2-pyridyl)quinoline-3-carboxamide]: the EC50 stood at 0.613 nM.

Take `Cc1ccccc1NC(=O)c1cc2ccccc2n(C)c1=O` [Example 11, 1-Methyl-N-(o-tolyl)-2-oxo-quinoline-3-carboxamide]: the EC50 amounted to 3.5 nM.

Take `Cn1c(=O)c(C(=O)Nc2ccncc2)cc2ccccc21` [Example 12, 1-Methyl-2-oxo-N-(4-pyridyl)quinoline-3-carboxamide]: the EC50 came to 6.89 nM.

On to `Cn1c(=O)c(C(=O)Nc2cccnc2)cc2ccccc21` [Example 13, 1-Methyl-2-oxo-N-(3-pyridyl)quinoline-3-carboxamide], for which the EC50 was 3.72 nM.

With `Cn1c(=O)c(C(=O)Nc2ncc(F)cn2)cc2ccccc21` [Example 14, N-(5-Fluoropyrimidin-2-yl)-1-methyl-2-oxo-quinoline-3-carboxamide], the EC50 amounted to 0.993 nM.

Regarding `COc1cnc(NC(=O)c2cc3ccccc3n(C)c2=O)nc1` [Example 15, N-(5-Methoxypyrimidin-2-yl)-1-methyl-2-oxo-quinoline-3-carboxamide], the EC50 stood at 14.2 nM.

Consider `COc1cnc(NC(=O)c2cc3ccccc3n(C)c2=O)cn1` [Example 16, N-(5-Methoxypyrazin-2-yl)-1-methyl-2-oxo-quinoline-3-carboxamide], for which the half-maximal effective concentration (EC50) was 1.09 nM.

`Cc1cnc(NC(=O)c2cc3ccccc3n(C)c2=O)nc1` [Example 17, 1-Methyl-N-(5-methylpyrimidin-2-yl)-2-oxo-quinoline-3-carboxamide]: the EC50 came out at 2.37 nM.

Consider `Cn1c(=O)c(C(=O)Nc2ccc(F)cc2)cc2cccnc21` [Example 18, N-(4-Fluorophenyl)-1-methyl-2-oxo-1,8-naphthyridine-3-carboxamide], for which the EC50 is 0.468 nM.

Take `Cc1cccc(NC(=O)c2cc3ccccc3n(C)c2=O)n1` [Example 19, 1-Methyl-N-(6-methyl-2-pyridyl)-2-oxo-quinoline-3-carboxamide]: the EC50 was 25.8 nM.

For `Cc1ccc(NC(=O)c2cc3ccccc3n(C)c2=O)nc1` [Example 20, 1-Methyl-N-(5-methyl-2-pyridyl)-2-oxo-quinoline-3-carboxamide], the EC50 was determined as 0.675 nM.

As for `COc1cccc(NC(=O)c2cc3ccccc3n(C)c2=O)n1` [Example 21, N-(6-Methoxy-2-pyridyl)-1-methyl-2-oxo-quinoline-3-carboxamide], the EC50 came out at 10.8 nM.

Turning to `Cn1c(=O)c(C(=O)Nc2ccc(F)cn2)cc2ccccc21` [Example 22, N-(5-Fluoro-2-pyridyl)-1-methyl-2-oxo-quinoline-3-carboxamide], the EC50 was 0.389 nM.

Regarding `Cn1c(=O)c(C(=O)Nc2cccc(F)c2)cc2ccccc21` [Example 23, N-(3-Fluorophenyl)-1-methyl-2-oxo-quinoline-3-carboxamide], the EC50 was determined as 0.601 nM.

As to `Cn1c(=O)c(C(=O)Nc2ccc(C#N)nc2)cc2ccccc21` [Example 24, N-(6-Cyano-3-pyridyl)-1-methyl-2-oxo-quinoline-3-carboxamide], the EC50 stood at 7.36 nM.

In the case of `COc1ccc(NC(=O)c2cc3cccc4c3n(c2=O)CCC4)cc1` [Example 25, N-(4-Methoxyphenyl)-2-oxo-1-azatricyclo[7.3.1.05,13]trideca-3,5,7,9(13)-tetraene-3-carboxamide], the EC50 turned out to be 2.57 nM.

Take `COc1ccc(NC(=O)c2cc3cccc4c3n(c2=O)CC4)cc1` [Example 26, N-(4-Methoxyphenyl)-11-oxo-1-azatricyclo[6.3.1.04,12]dodeca-4(12),5,7,9-tetraene-10-carboxamide]: the EC50 was found to be 0.701 nM.

Take `Cn1cc(NC(=O)c2cc3ccccc3n(C)c2=O)cn1` [Example 27, hydrochloride]: the EC50 was determined as 10.6 nM.

Turning to `Cn1c(=O)c(C(=O)Nc2ncccc2F)cc2ccccc21` [Example 28, N-(3-Fluoro-2-pyridyl)-1-methyl-2-oxo-quinoline-3-carboxamide], the EC50 came out at 1.91 nM.

Turning to `Cc1ccc(NC(=O)c2cc3cccc4c3n(c2=O)CC4)cc1` [Example 29, 11-Oxo-N-(p-tolyl)-1-azatricyclo[6.3.1.04,12]dodeca-4(12),5,7,9-tetraene-10-carboxamide], the concentration for a half-maximal effect (EC50) came to 0.57 nM.

Regarding `O=C(Nc1ccc(F)cc1)c1cc2cccc3c2n(c1=O)CC3` [Example 30, N-(4-Fluorophenyl)-11-oxo-1-azatricyclo[6.3.1.04,12]dodeca-4(12),5,7,9-tetraene-10-carboxamide], the EC50 turned out to be 0.511 nM.

For the compound `Cn1c(=O)c(C(=O)NC23CC(C2)C3)cc2ccccc21` [Example 32, N-(3-Bicyclo[1.1.1]pentanyl)-1-methyl-2-oxo-quinoline-3-carboxamide], the EC50 is 16.4 nM.

With `O=C(Nc1ccc(C(F)(F)F)cc1)c1cc2cccc3c2n(c1=O)CC3` [Example 33, 11-Oxo-N-[4-(trifluoromethyl)phenyl]-1-azatricyclo[6.3.1.04,12]dodeca-4(12),5,7,9-tetraene-10-carboxamide], the 50% effective concentration (EC50) turned out to be 1.33 nM.

For `O=C(Nc1ccccc1)c1cc2ccccc2[nH]c1=O` [Example 34, 2-Oxo-N-phenyl-1H-quinoline-3-carboxamide], the EC50 stood at 9.04 nM.

Take `COc1ccc(NC(=O)c2cc3cccnc3n(C)c2=O)cc1` [Example 35, N-(4-Methoxyphenyl)-1-methyl-2-oxo-1,8-naphthyridine-3-carboxamide]: the EC50 was determined as 2.29 nM.

For the compound `COc1ccc(NC(=O)c2cc3ccc(Br)cc3n(C)c2=O)cc1` [Example 36, 7-Bromo-N-(4-methoxyphenyl)-1-methyl-2-oxo-quinoline-3-carboxamide], the EC50 was 0.832 nM.
